Data set [1] can be described thus: Particle size and PDI of lipid nanoparticles by dynamic light scattering. The note with it: lipid nanoparticles with luciferase mRNA; ionizable lipid/cholesterol/DSPC/DMG-PEG2000 50/38.5/10/1.5 mol%. It is filed as physicochemical. The procedure, abridged:
(§1)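 LNPs of ionizable lipid/cholesterol/phospholipid/PEG-lipid (50/38.5/10/1.5 mol%, N/P 6) were formed by microfluidic mixing with mRNA in pH 4.5 acetate, then buffer-exchanged by ultrafiltration. Size and PDI were measured by DLS. Encapsulation came from RiboGreen fluorescence (485/528 nm) in TE pH 7.5, with and without 0.5% Triton at 37 °C for 30 min.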

The nature of data set [2]: Encapsulation efficiency of lipid nanoparticles (Quant-it RiboGreen RNA Assay). It is filed as physicochemical. To be noted: lipid nanoparticles with luciferase mRNA. The gist of the method:
as §1

A further data set has as its system C57BL/6 mice. Put plainly: In vivo delivery of luciferase mRNA lipid nanoparticles in mice (bioluminescence imaging). To be noted: intravenous, single dose 0.5 mg/kg luciferase mRNA. The procedure, abridged: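 Female C57BL/6 mice, 6-8 weeks old, received luciferase mRNA lipid nanoparticles as a single intravenous dose of 0.5 mg/kg mRNA. At 6 h, D-luciferin given intraperitoneally; 10 min later, mice were imaged under isoflurane anaesthesia. Values are group mean fluorescence intensity and total photon count.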

The text below walks through data of patent US12617752B2, “Rapidly metabolized lipid compound” (Beijing Jitai Life Sciences Ltd, priority 2023, dated 2026).

As for `CCCCCCCCCCC(=O)OCCCCC(C)(C)CCN(CCO)CCCCCCCC(=O)OCCC(CCCCCCC)CCCCCCC` [72b], in data set [1], the “Particle size (nm)” value amounted to 92.45 nm and the “Particle-size distribution (PDI)” value was determined as 0.12. Moreover, the “Encapsulation efficiency (%)” value in data set [2] is on record as 95.13%. Besides, in the data set with C57BL/6 mice, the “Total photon count in vivo at 6 hours after administration (Total Flux)” value (“Total photon count in vivo at 6 hours” for short) worked out at 7.01E+10.
With `CCCCCCCCCC(=O)OCCCC(C)(C)CCCN(CCO)CCCCCCC(=O)OCCC(CCCCCCC)CCCCCCC` [74b], in data set [1], the “Particle size (nm)” value is listed as 93.18 nm and the “Particle-size distribution (PDI)” value is recorded as 0.17. Moreover, the “Encapsulation efficiency (%)” value in data set [2] was found to be 94.92%. The “Total photon count in vivo at 6 hours” value in the data set with C57BL/6 mice is recorded as 7.13E+10.
Turning to `CCCCCCCCCC(=O)OCCCC(C)(C)CCCN(CCO)CCCCCCC(=O)OCCCC(CCCCCC)CCCCCC` [75b], in data set [1], the “Particle size (nm)” value amounted to 91.60 nm and the “Particle-size distribution (PDI)” value is on record as 0.19. The “Encapsulation efficiency (%)” value in data set [2] is given as 95.99%. Besides, the “Total photon count in vivo at 6 hours” value in the data set on C57BL/6 mice is 7.05E+10.
As to `CCCCCCCCCC(=O)OCC(C)(C)CCCCCN(CCCO)CCCCCCC(=O)OCC(CCCCCCCC)CCCCCCCC` [76b], in data set [1], the “Particle size (nm)” value was found to be 91.27 nm and the “Particle-size distribution (PDI)” value is recorded as 0.18. Besides, the “Encapsulation efficiency (%)” value in data set [2] was found to be 94.97%. For the same compound, the “Total photon count in vivo at 6 hours” value with C57BL/6 mice came to 9.41E+10.
For `CCCCCCCCCC(=O)OCC(C)(C)CCCCCN(CCCO)CCCCCCC(=O)OCCC(CCCCCCC)CCCCCCC` [77b] the same measures were 93.16 nm, 0.16, 95.88% and 9.72E+10.
The like results for `CCCCCCCCCCC(=O)OCC(C)(C)CCCCCN(CCCCO)CCCCCCC(=O)OCC(CCCCCCCCC)CCCCCCCCC` [78b] were, in that order, 98.88 nm, 0.12, 92.27% and 5.51E+10.
`CCCCCCCCCCC(=O)OCC(C)(C)CCCCCN(CCCO)CCCCCCCCC(=O)OCC(CCCCCCC)CCCCCCC` [79b]: in data set [1], the “Particle size (nm)” value stood at 99.27 nm and the “Particle-size distribution (PDI)” value was found to be 0.15. In data set [2], the “Encapsulation efficiency (%)” value was 92.85%. In the data set with C57BL/6 mice, the “Total photon count in vivo at 6 hours” value is recorded as 1.62E+11.
Take `CCCCCCCCCCC(=O)OCCCC(C)(C)CCCN(CCO)CCCCCCCC(=O)OCCC(CCCCCCC)CCCCCCC` [80b]: in data set [1], the “Particle size (nm)” value worked out at 93.39 nm and the “Particle-size distribution (PDI)” value is recorded as 0.18. Moreover, the “Encapsulation efficiency (%)” value in data set [2] is reported as 93.59%. The “Total photon count in vivo at 6 hours” value in the data set on C57BL/6 mice is on record as 8.94E+10.
In the case of `CCCCCCCCCCC(=O)OCCCC(C)(C)CCCN(CCCO)CCCCCCCC(=O)OCCC(CCCCCCC)CCCCCCC` [81b], in data set [1], the “Particle size (nm)” value is 107.43 nm and the “Particle-size distribution (PDI)” value turned out to be 0.19. Also, the “Encapsulation efficiency (%)” value in data set [2] is recorded as 92.87%. Moreover, the “Total photon count in vivo at 6 hours” value in the data set on C57BL/6 mice amounted to 5.20E+10.
For `CCCCCCCCCC(=O)OCCCC(C)(C)CCCN(CCCO)CCCCCCC(=O)OCC(CCCCCCCC)CCCCCCCC` [82b] the same measures were 99.57 nm, 0.16, 90.71% and 5.03E+10.
The like results for `CCCCCCCCCC(=O)OCCCC(C)(C)CCCN(CCCO)CCCCCCC(=O)OCCCC(CCCCCC)CCCCCC` [83b] were, in that order, 100.67 nm, 0.10, 95.70% and 1.62E+10.
For `CCCCCCCCCC(=O)OCCCC(C)(C)CCCN(CCCCO)CCCCCCC(=O)OCC(CCCCCCCC)CCCCCCCC` [84b] the same measures were 123.77 nm, 0.11, 89.17% and 6.68E+10.
With `CCCCCCCCCCC(=O)OCC(C)(C)CCCCCN(CCCO)CCCCCCC(=O)OCC(CCCCCCCCC)CCCCCCCCC` [85b], in data set [1], the “Particle size (nm)” value is reported as 92.14 nm and the “Particle-size distribution (PDI)” value was 0.17. In addition, the “Encapsulation efficiency (%)” value in data set [2] is 95.44%. Also, the “Total photon count in vivo at 6 hours” value in the data set with C57BL/6 mice came out at 9.61E+10.
In the case of `CCCCCCCCCCCC(=O)OCC(C)(C)CCCCCN(CCCO)CCCCCCC(=O)OCC(CCCCCCCCCC)CCCCCCCCCC` [86b], in data set [1], the “Particle size (nm)” value turned out to be 92.26 nm and the “Particle-size distribution (PDI)” value was 0.13. Further, the “Encapsulation efficiency (%)” value in data set [2] came to 94.74%. The “Total photon count in vivo at 6 hours” value in the data set on C57BL/6 mice is 1.01E+11.
For the compound `CCCCCCCCCCC(=O)OCC(C)(C)CCCCCN(CCO)CCCCCCCCC(=O)OCC(CCCCCCC)CCCCCCC` [87b], in data set [1], the “Particle size (nm)” value came out at 92.25 nm and the “Particle-size distribution (PDI)” value was 0.22. Further, the “Encapsulation efficiency (%)” value in data set [2] was 94.16%. The “Total photon count in vivo at 6 hours” value in the data set on C57BL/6 mice is on record as 1.35E+11.
Consider `CCCCCCCCCCCC(=O)OCC(C)(C)CCCCCN(CCCO)CCCCCCCCC(=O)OCC(CCCCCCCC)CCCCCCCC` [88b], for which, in data set [1], the “Particle size (nm)” value was 98.16 nm and the “Particle-size distribution (PDI)” value came to 0.12. Moreover, the “Encapsulation efficiency (%)” value in data set [2] amounted to 94.68%. Also, the “Total photon count in vivo at 6 hours” value in the data set with C57BL/6 mice is 4.51E+10.
With `CCCCCCCCCCC(=O)OCC(C)(C)CCCCCN(CCCCO)CCCCCCCCC(=O)OCC(CCCCCCC)CCCCCCC` [89b], in data set [1], the “Particle size (nm)” value is recorded as 122.20 nm and the “Particle-size distribution (PDI)” value is recorded as 0.08. In addition, the “Encapsulation efficiency (%)” value in data set [2] was determined as 84.88%. For the same compound, in the data set on C57BL/6 mice, the “Total photon count in vivo at 6 hours” value was 5.51E+10.
For the compound `CCCCCCCCCCCC(=O)OCC(C)(C)CCCCCN(CCCCO)CCCCCCCCC(=O)OCC(CCCCCCCC)CCCCCCCC` [90b], in data set [1], the “Particle size (nm)” value amounted to 109.57 nm and the “Particle-size distribution (PDI)” value turned out to be 0.08. Besides, the “Encapsulation efficiency (%)” value in data set [2] is listed as 91.21%. Further, in the data set with C57BL/6 mice, the “Total photon count in vivo at 6 hours” value stood at 4.72E+10.
Consider `CCCCCCCCCCCC(=O)OCC(C)(C)CCCCCN(CCCCO)CCCCCCC(=O)OCC(CCCCCCCCCC)CCCCCCCCCC` [91b], for which, in data set [1], the “Particle size (nm)” value came out at 96.43 nm and the “Particle-size distribution (PDI)” value was 0.12. In data set [2], the “Encapsulation efficiency (%)” value was determined as 91.95%. In the data set with C57BL/6 mice, the “Total photon count in vivo at 6 hours” value was determined as 8.66E+10.
With `CCCCCCCCCC(=O)OCCCC(C)(C)CCCN(CCCO)CCCCCCC(=O)OCCC(CCCCCCC)CCCCCCC` [92b], in data set [1], the “Particle size (nm)” value came to 99.90 nm and the “Particle-size distribution (PDI)” value is listed as 0.15. For the same compound, the “Encapsulation efficiency (%)” value in data set [2] was 92.47%. In addition, the “Total photon count in vivo at 6 hours” value in the data set on C57BL/6 mice amounted to 3.74E+10.
Consider `CCCCCCCCCC(=O)OCCCC(C)(C)CCCN(CCCCO)CCCCCCC(=O)OCCC(CCCCCCC)CCCCCCC` [93b], for which, in data set [1], the “Particle size (nm)” value is recorded as 141.73 nm and the “Particle-size distribution (PDI)” value came out at 0.10. For the same compound, the “Encapsulation efficiency (%)” value in data set [2] is listed as 90.17%. Besides, the “Total photon count in vivo at 6 hours” value in the data set on C57BL/6 mice is on record as 2.45E+10.
